Among the data in PMC5330486 (PLoS Biology, 2017) are Kd and AsfvPolX values, retold here.

For the assay, the target named is T1, AsfvPolX (ASFV DNA Polymerase X) (African swine fever virus BA71V, UniProt P42494).
T1 construct: gene Ba71V-97
Put plainly: biochemical. It is filed as binding. As to conditions: for AsfvPolX: no DNA stated, buffer, metal and temperature not stated.

T1 sequence (P42494 whole entry, looked up): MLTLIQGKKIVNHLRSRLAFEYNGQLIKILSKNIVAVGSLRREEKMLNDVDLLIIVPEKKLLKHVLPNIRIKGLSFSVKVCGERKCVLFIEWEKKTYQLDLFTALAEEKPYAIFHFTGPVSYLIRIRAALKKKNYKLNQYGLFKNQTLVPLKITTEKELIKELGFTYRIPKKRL

Take `Nc1ccn([C@H]2C[C@H](O)[C@@H](COP(=O)(O)OP(=O)(O)OP(=O)(O)O)O2)c(=O)n1` [dCTP]: binding was characterised by a dissociation constant (Kd) of 6.85 ± 0.55 µM.
`Nc1nc2c(ncn2[C@H]2C[C@H](O)[C@@H](COP(=O)(O)OP(=O)(O)OP(=O)(O)O)O2)c(=O)[nH]1` [dGTP]: for the setting “structures are ternary complexes with gap(P) DNA and Mn2+”, the AsfvPolX is given as 0.37+0.02 μM.
Regarding `Cc1cn([C@H]2C[C@H](O)[C@@H](COP(=O)(O)OP(=O)(O)OP(=O)(O)O)O2)c(=O)[nH]c1=O` [dTTP], the Kd (commonly the equilibrium constant for the complex coming apart) came out at 9.09 ± 0.89 µM.
With `Nc1ncnc2c1ncn2[C@H]1C[C@H](O)[C@@H](COP(=O)(O)OP(=O)(O)OP(=O)(O)O)O1` [dATP], the AsfvPolX was 0.66 ± 0.05 µM.
